Assay [1] deals with Rattus norvegicus. Briefly: Number of mean cysts/g of lung tissue observed at 0.9 uM/kg/day dose of compound tested in vivo against Pneumocystis carinii pneumonia infected rats. In kind it is functional.
In assay [2] the test system is Rattus norvegicus. Kind of assay: Number of mean cysts/g of lung tissue observed at 9-10 uM/kg/day dose of compound tested in vivo against Pneumocystis carinii pneumonia infected rats. In kind it is functional.

PCP activity data for three compounds are collected here from ChEMBL document CHEMBL1132820, “DNA minor groove interactions and the biological activity of 2,5-bis” (Bioorg Med Chem Lett, 2000).

Structures are written as SMILES.

With `N=C(NC1CCCCC1)c1ccc(-c2ccc(-c3ccc(C(=N)NC4CCCCC4)cc3)o2)cc1`, the figures for the PCP activity in assay [1] and in assay [2] were 26.2 cysts g-1 and 0.02 cysts g-1, respectively.

`N=C(NC1CCCC1)c1ccc(-c2ccc(-c3ccc(C(=N)NC4CCCC4)cc3)o2)cc1`: the PCP activity in assay [1] is recorded as 0.11 cysts g-1; in assay [2], 0.03 cysts g-1.

With `N=C(NC1CCC1)c1ccc(-c2ccc(-c3ccc(C(=N)NC4CCC4)cc3)o2)cc1`, the values for the PCP activity in assay [1] and in assay [2] were 0.67 cysts g-1 and 0.05 cysts g-1, respectively.
